{
  "source": "ChEMBL document CHEMBL3232730",
  "about": "“Design, synthesis and bioevaluation of N-trisubstituted pyrimidine derivatives as potent aurora A kinase inhibitors” (Eur J Med Chem, 2014)",
  "key": {"[1]": {"assay": "Cell cycle arrest in human CNE2 cells assessed as accumulation at polyploid period at 0.1 uM after 24 hrs by propidium iodide staining-based flow cytometric analysis (reference value: […]%)", "type": "functional", "conditions": "CNE-2"}, "PC-3": {"system": "PC-3", "assay": "Antiproliferative activity against human PC3 cells assessed as cell viability after 72 hrs by CCK8 assay", "type": "functional, cell-based", "conditions": "Homo sapiens, PC-3, 72 h; read-out: IC50"}, "A549": {"system": "A549", "assay": "Antiproliferative activity against human A549 cells assessed as cell viability after 72 hrs by CCK8 assay", "type": "functional, cell-based", "conditions": "A549, 72 h"}, "[2]": {"assay": "Cell cycle arrest in human CNE2 cells assessed as accumulation at G2/M phase at 0.01 uM after 24 hrs by propidium iodide staining-based flow cytometric analysis (reference value: 31%)", "type": "functional", "conditions": "CNE-2"}, "[3]": {"assay": "Cell cycle arrest in human CNE2 cells assessed as accumulation at G2/M phase at 0.1 uM after 24 hrs by propidium iodide staining-based flow cytometric analysis (reference value: 24.5%)", "type": "functional", "conditions": "CNE-2"}, "MCF7": {"system": "MCF7", "assay": "Antiproliferative activity against human MCF7 cells assessed as cell viability after 72 hrs by CCK8 assay", "type": "functional, cell-based", "conditions": "Homo sapiens, MCF7, 72 h; read-out: IC50"}, "MDA-MB-231": {"system": "MDA-MB-231", "assay": "Antiproliferative activity against human MDA-MB-231 cells assessed as cell viability after 72 hrs by CCK8 assay", "type": "functional, cell-based", "conditions": "Homo sapiens, MDA-MB-231, 72 h; read-out: IC50"}, "[4]": {"assay": "Cell cycle arrest in human CNE2 cells assessed as accumulation at G1 phase at 0.01 uM after 24 hrs by propidium iodide staining-based flow cytometric analysis (reference value: 52.5%)", "type": "functional", "conditions": "CNE-2"}, "U-937": {"system": "U-937", "assay": "Antiproliferative activity against human U937 cells assessed as cell viability after 72 hrs by CCK8 assay", "type": "functional, cell-based", "conditions": "Homo sapiens, U-937, 72 h; read-out: IC50"}, "[5]": {"assay": "Antiproliferative activity against human MOLT4 cells assessed as cell viability after 72 hrs by CCK8 assay", "type": "functional, cell-based, MOLT-4", "conditions": "Homo sapiens, MOLT-4, 72 h; read-out: IC50"}, "[6]": {"assay": "Cell cycle arrest in human CNE2 cells assessed as accumulation at polyploid period at 0.01 uM after 24 hrs by propidium iodide staining-based flow cytometric analysis (reference value: […])", "type": "functional", "conditions": "CNE-2"}, "[7]": {"assay": "Cell cycle arrest in human CNE2 cells assessed as accumulation at polyploid period at 1 uM after 24 hrs by propidium iodide staining-based flow cytometric analysis (reference value: […])", "type": "functional", "conditions": "CNE-2"}, "HeLa": {"system": "HeLa", "assay": "Antiproliferative activity against human HeLa cells assessed as cell viability after 72 hrs by CCK8 assay", "type": "functional, cell-based", "conditions": "Homo sapiens, HeLa, 72 h; read-out: IC50"}, "[8]": {"assay": "Cell cycle arrest in human CNE2 cells assessed as accumulation at G1 phase at 1 uM after 24 hrs by propidium iodide staining-based flow cytometric analysis (reference value: 52.5%)", "type": "functional", "conditions": "CNE-2"}, "HL-60": {"system": "HL-60", "assay": "Antiproliferative activity against human HL60 cells assessed as cell viability after 72 hrs by CCK8 assay", "type": "functional, cell-based", "conditions": "Homo sapiens, HL-60, 72 h; read-out: IC50"}, "HCT-116": {"system": "HCT-116", "assay": "Antiproliferative activity against human HCT116 cells assessed as cell viability after 72 hrs by CCK8 assay", "type": "functional, cell-based", "conditions": "Homo sapiens, HCT-116, 72 h; read-out: IC50"}, "[9]": {"assay": "Cell cycle arrest in human CNE2 cells assessed as accumulation at G1 phase at 0.1 uM after 24 hrs by propidium iodide staining-based flow cytometric analysis (reference value: […])", "type": "functional", "conditions": "CNE-2"}, "A-431": {"system": "A-431", "assay": "Antiproliferative activity against human A431 cells assessed as cell viability after 72 hrs by CCK8 assay", "type": "functional, cell-based", "conditions": "Homo sapiens, A-431, 72 h; read-out: IC50"}, "[10]": {"assay": "Cell cycle arrest in human CNE2 cells assessed as accumulation at S phase at 0.1 uM after 24 hrs by propidium iodide staining-based flow cytometric analysis (reference value: 13.1%)", "type": "functional", "conditions": "CNE-2"}, "[11]": {"assay": "Cell cycle arrest in human CNE2 cells assessed as accumulation at G2/M phase after 24 hrs by propidium iodide staining-based flow cytometric analysis", "type": "functional", "conditions": "CNE-2"}, "[12]": {"assay": "Cell cycle arrest in human CNE2 cells assessed as accumulation at S phase at 0.01 uM after 24 hrs by propidium iodide staining-based flow cytometric analysis (reference value: 14.9%)", "type": "functional", "conditions": "CNE-2"}, "DU-145": {"system": "DU-145", "assay": "Antiproliferative activity against human DU145 cells assessed as cell viability after 72 hrs by CCK8 assay", "type": "functional, cell-based", "conditions": "Homo sapiens, DU-145, 72 h; read-out: IC50"}, "K562": {"system": "K562", "assay": "Antiproliferative activity against human K562 cells assessed as cell viability after 72 hrs by CCK8 assay", "type": "functional, cell-based", "conditions": "Homo sapiens, K562, 72 h; read-out: IC50"}, "[13]": {"assay": "Cell cycle arrest in human CNE2 cells assessed as accumulation at S phase at 1 uM after 24 hrs by propidium iodide staining-based flow cytometric analysis (reference value: 14.7%)", "type": "functional", "conditions": "CNE-2"}, "Aurora kinase A": {"molecular_target": "T1, Aurora kinase A (Homo sapiens, UniProt O14965)", "T1 sequence (O14965 whole entry)": "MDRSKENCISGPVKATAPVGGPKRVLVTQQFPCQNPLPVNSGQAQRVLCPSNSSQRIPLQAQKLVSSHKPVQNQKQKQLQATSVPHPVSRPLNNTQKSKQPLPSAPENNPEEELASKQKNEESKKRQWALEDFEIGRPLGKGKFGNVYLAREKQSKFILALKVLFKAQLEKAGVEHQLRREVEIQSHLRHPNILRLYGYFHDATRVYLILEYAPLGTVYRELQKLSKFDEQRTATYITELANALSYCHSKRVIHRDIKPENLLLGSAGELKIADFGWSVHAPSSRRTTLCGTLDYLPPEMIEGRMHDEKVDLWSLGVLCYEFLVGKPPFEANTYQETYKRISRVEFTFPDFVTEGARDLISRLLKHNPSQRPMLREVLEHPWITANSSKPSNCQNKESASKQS", "assay": "Inhibition of Aurora A (unknown origin) using FAM-labeled peptide as substrate preincubated for 10 mins followed by substrate addition measured after 60 mins"}, "[14]": {"assay": "Cell cycle arrest in human CNE2 cells assessed as accumulation at G2/M phase at 1 uM after 24 hrs by propidium iodide staining-based flow cytometric analysis (reference value: 38.2%)", "type": "functional", "conditions": "CNE-2"}, "NCI-N87": {"system": "NCI-N87", "assay": "Antiproliferative activity against human NCI-N87 cells assessed as cell viability after 72 hrs by CCK8 assay", "type": "functional, cell-based", "conditions": "Homo sapiens, NCI-N87, 72 h; read-out: IC50"}, "[15]": {"assay": "Antiproliferative activity against human SKBR3 cells assessed as cell viability after 72 hrs by CCK8 assay", "type": "functional, cell-based, SK-BR-3", "conditions": "Homo sapiens, SK-BR-3, 72 h; read-out: IC50"}, "[16]": {"assay": "Antiproliferative activity against human PANC1 cells assessed as cell viability after 72 hrs by CCK8 assay", "type": "functional, cell-based", "conditions": "PANC-1, 72 h"}},
  "data": [
    {"smiles": "COc1cccc(Nc2nc(Nc3cc(C)[nH]n3)cc(N3CCN(C)CC3)n2)c1", "values": [
      {"measurement": "Activity", "setting": "[1]", "result": 4, "unit": "%"},
      {"measurement": "IC50", "setting": "PC-3", "result": 1080, "unit": "nM"},
      {"measurement": "IC50", "setting": "A549", "result": 1690, "unit": "nM"},
      {"measurement": "Activity", "setting": "[2]", "result": 26.1, "unit": "%"},
      {"measurement": "Activity", "setting": "[3]", "result": 32.2, "unit": "%"},
      {"measurement": "IC50", "setting": "MCF7", "result": 933, "unit": "nM"},
      {"measurement": "IC50", "setting": "MDA-MB-231", "result": 240, "unit": "nM"},
      {"measurement": "Activity", "setting": "[4]", "result": 61.7, "unit": "%"},
      {"measurement": "IC50", "setting": "U-937", "result": 126, "unit": "nM"},
      {"measurement": "IC50", "setting": "[5]", "result": 192, "unit": "nM"},
      {"measurement": "Activity", "setting": "[6]", "result": 4.6, "unit": "%"},
      {"measurement": "Activity", "setting": "[7]", "result": 2.4, "unit": "%"},
      {"measurement": "IC50", "setting": "HeLa", "result": 546, "unit": "nM"},
      {"measurement": "Activity", "setting": "[8]", "result": 3.2, "unit": "%"},
      {"measurement": "IC50", "setting": "HL-60", "result": 397, "unit": "nM"},
      {"measurement": "IC50", "setting": "HCT-116", "result": 923, "unit": "nM"},
      {"measurement": "Activity", "setting": "[9]", "result": 57.2, "unit": "%"},
      {"measurement": "IC50", "setting": "A-431", "result": 332, "unit": "nM"},
      {"measurement": "Activity", "setting": "[10]", "result": 6.9, "unit": "%"},
      {"measurement": "Activity", "setting": "[11]", "result": "Dose-dependent effect"},
      {"measurement": "Activity", "setting": "[12]", "result": 8.1, "unit": "%"},
      {"measurement": "IC50", "setting": "DU-145", "result": 2650, "unit": "nM"},
      {"measurement": "IC50", "setting": "K562", "result": 509, "unit": "nM"},
      {"measurement": "Activity", "setting": "[13]", "result": 1.7, "unit": "%"},
      {"measurement": "IC50", "setting": "Aurora kinase A", "result": 22, "unit": "nM"},
      {"measurement": "Activity", "setting": "[14]", "result": 92.5, "unit": "%"},
      {"measurement": "IC50", "setting": "NCI-N87", "result": 7190, "unit": "nM"},
      {"measurement": "IC50", "setting": "[15]", "result": 11300, "unit": "nM"},
      {"measurement": "IC50", "setting": "[16]", "result": 693, "unit": "nM"}
    ]}
  ]
}
